{
  "source": "the OPERA property sets (Mansouri et al. 2018)",
  "data": [
    {"conditions": "not given", "values": [
      {"smiles": "CCCCCCCCCCCCCC(=O)OC", "logP": 6.41},
      {"smiles": "CCCCCCCCCCCCCCCCCCCC(=O)OC", "logP": 9.3},
      {"smiles": "CCCCCCCCCCCCCCCCCC(=O)OC", "logP": 8.35},
      {"smiles": "CCCCCCCCCCCCCCCC(=O)OC", "logP": 7.38},
      {"smiles": "CCCCC/C=C\\C/C=C\\CCCCCCCC(=O)OC", "logP": 6.82},
      {"smiles": "CCCCCCCCCCCC(=O)OC", "logP": 5.41},
      {"smiles": "CC/C=C\\C/C=C\\C/C=C\\CCCCCCCC(=O)OC", "logP": 6.29},
      {"smiles": "CCCCCCCCCCCCCCCCCCCCCC(=O)OC", "logP": 10.2},
      {"smiles": "CCCCCCCCCCCC(=O)OCC(CC)CCCC", "note": "(stereo not given)", "logP": 8.03},
      {"smiles": "CCCCCCCCCCCC(=O)OCCCC", "logP": 6.51},
      {"smiles": "CCCCCCCC/C=C\\CCCCCCCCCCCC(=O)OC", "logP": 9.32},
      {"smiles": "CCCCCCCC/C=C\\CCCCCCCC(=O)OC", "logP": 7.45},
      {"smiles": "CCCCCCCCCCCC(=O)OCCC", "logP": 6.11},
      {"smiles": "CCCCCCCCCCCC(=O)OCC", "logP": 5.71}
    ]},
    {"conditions": "25 °C", "units": {"solubility": "µM"}, "values": [
      {"smiles": "CCCCCCCCCCc1ccccc1", "solubility": 0.011}
    ]}
  ]
}
